We go through three molecules from US9121801B2, “Methods and devices for cellular analysis” (BioMarker Strategies, LLC, priority 2007, dated 2015).

For assay [1], the system named is FOS expression. Particulars: 14 days treatment, cited from earlier work.
Assay [2] deals with FOS mRNA. Particulars: in culture; susceptible cell lines A431, CAL27, and HN11; cited from earlier work.
In assay [3] the test system is FOS mRNA. Description: FOS mRNA induction by quantitative RT-PCR in MCF-7 cells. Type of assay: cell-based, human. Particulars: 100 ng/ml of EGF ligand, incubation 0-45 minutes. The method, then: A functional measurement of cellular activation includes FOS mRNA induction determined by quantitative RT-PCR. FOS is an early response gene associated with the EGFR pathway. In an experiment, MCF-7 cells were grown in normal growth conditions in 6 well plates to 80% confluency. Cells were gently scraped and exposed to increasing shear forces (0-800 dyne/cm^2 through the Harvard Pipetter) in addition to increasing incubation times (0-45 minutes) in the presence or absence of 100 ng/ml of EGF ligand (Sigma) prior to RNA extraction. FOS mRNA induction peaks at 30-45 minutes and returns to basal levels in approximately 60 minutes. FOS induction is also stimulated as a result of incubation with EGF ligand. […] See FIGS. 17 and 18 for a graphical depiction of the results obtained.

The mark [4] stands for this setting: EGFR-sensitive A431, CAL27, and HN11 xenograft tumors, gefitinib (A431), erlotinib (CAL27, HN11).
Where [5] appears, read: resistant strains, xenografts, gefitinib (HuCCT1), erlotinib (Hep2).

Where two headings read alike, the source gives them in different places.

`C#Cc1cccc(Nc2ncnc3cc(OCCOC)c(OCCOC)cc23)c1` [erlotinib]: the results for the “increase in FOS expression in vivo” value in assay [1] (setting [4]) and in assay [1] (setting [5]) were “abrogate the increase in FOS expression” and “not in resistant strains”, respectively. Also, in assay [2], the “FOS mRNA levels” value is reported as “decrease FOS mRNA levels”.
In the case of “EGF ligand: growth factor, tumor-cell stimulatory ligand (Sigma) (NSDSECPLSHDGYCLHDGVCMYIEALDKYACNCVVGYIGERCQYRDLKWWELR; Epidermal growth factor; UniProt P01133 971-1023, looked up)”, the FOS induction result in assay [3] is given as “stimulated”.
Regarding `COc1cc2ncnc(Nc3ccc(F)c(Cl)c3)c2cc1OCCCN1CCOCC1` [gefitinib], the “increase in FOS expression in vivo” value in assay [1] (setting [4]) is recorded as “abrogate the increase in FOS expression”; in assay [1] (setting [5]) it was “not in resistant strains”. Besides, the “FOS mRNA levels” value in assay [2] is “decrease FOS mRNA levels”.
